# From PubChem BioAssay AID1963836 (Molecular Pharmacology Branch, DTP, NCI, 2024)
# Tested on: 857933-349-R-J2-PDC complex spheroid viability
# Assay: Anticancer human tumor 857933-349-R-J2-PDC patient-derived colon adenocarcinoma cell line growth inhibition [POLQ]
# Details: for IC50: curve of first compound; for viability, T/C: stronger effect = lower value
# Procedure, shortened: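 Patient-derived tumour cells were co-cultured with HUVEC and mesenchymal stem cells as multicellular spheroids at 37 °C. They were treated with POLQ inhibitors (novobiocin, ART-558, RP6685) alone or combined with other agents. Top concentrations were at or near clinical Cmax (otherwise 10 microM; SN-38 at 1 microM), decreasing in half-log steps.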
# [1] = second compound 0.0316 µM, first compound 0.0316 µM
# [2] = second compound 0.0316 µM, first compound 0.1 µM
# [3] = second compound 0.0316 µM, first compound 0.316 µM
# [4] = second compound 0.0316 µM, first compound 1 µM
# [5] = second compound 0.0316 µM, first compound 3.16 µM
# [6] = second compound 0.0316 µM, first compound 10 µM
# [7] = second compound 0.1 µM, first compound 0.0316 µM
# [8] = second compound 0.1 µM, first compound 0.1 µM
# [9] = second compound 0.1 µM, first compound 0.316 µM
# [10] = second compound 0.1 µM, first compound 1 µM
# [11] = second compound 0.1 µM, first compound 3.16 µM
# [12] = second compound 0.1 µM, first compound 10 µM
# [13] = second compound 0.316 µM, first compound 0.0316 µM
# [14] = second compound 0.316 µM, first compound 0.1 µM
# [15] = second compound 0.316 µM, first compound 0.316 µM
# [16] = second compound 0.316 µM, first compound 1 µM
# [17] = second compound 0.316 µM, first compound 3.16 µM
# [18] = second compound 0.316 µM, first compound 10 µM
# [19] = second compound 1 µM, first compound 0.0316 µM
# [20] = second compound 1 µM, first compound 0.1 µM
# [21] = second compound 1 µM, first compound 0.316 µM
# [22] = second compound 1 µM, first compound 1 µM
# [23] = second compound 1 µM, first compound 3.16 µM
# [24] = second compound 1 µM, first compound 10 µM
# [25] = second compound 3.16 µM, first compound 0.0316 µM
# [26] = second compound 3.16 µM, first compound 0.1 µM
# [27] = second compound 3.16 µM, first compound 0.316 µM
# [28] = second compound 3.16 µM, first compound 1 µM
# [29] = second compound 3.16 µM, first compound 3.16 µM
# [30] = second compound 3.16 µM, first compound 10 µM
# [31] = second compound 10 µM, first compound 0.0316 µM
# [32] = second compound 10 µM, first compound 0.1 µM
# [33] = second compound 10 µM, first compound 0.316 µM
# [34] = second compound 10 µM, first compound 1 µM
# [35] = second compound 10 µM, first compound 3.16 µM
# [36] = second compound 10 µM, first compound 10 µM
# 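Note: spheroids exposed to compounds for seven days before readout.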
smiles,measurement,setting,value
C=CC(=O)N1CCN(c2nc(=O)n(-c3c(C)ccnc3C(C)C)c3nc(-c4c(O)cccc4F)c(F)cc23)C(C)C1 (centres undefined) + Nc1ccc(C#CCN(C(=O)Cc2ncc(C(F)(F)F)cc2C(F)(F)F)c2ccc(F)cc2)nn1,IC50,second compound 0.0316 µM,> 10 µM
same,IC50,second compound 0.1 µM,> 10 µM
same,IC50,second compound 0.316 µM,> 10 µM
same,IC50,second compound 1 µM,> 10 µM
same,IC50,second compound 3.16 µM,> 10 µM
same,IC50,second compound 10 µM,> 10 µM
same,"viability, T/C",[1],90.6%
same,"viability, T/C",[2],101%
same,"viability, T/C",[3],113%
same,"viability, T/C",[4],98.6%
same,"viability, T/C",[5],113%
same,"viability, T/C",[6],87.6%
same,"viability, T/C",[7],99.3%
same,"viability, T/C",[8],90.7%
same,"viability, T/C",[9],105%
same,"viability, T/C",[10],100%
same,"viability, T/C",[11],98.9%
same,"viability, T/C",[12],95.5%
same,"viability, T/C",[13],107%
same,"viability, T/C",[14],98.5%
same,"viability, T/C",[15],98.3%
same,"viability, T/C",[16],112%
same,"viability, T/C",[17],93.1%
same,"viability, T/C",[18],83.5%
same,"viability, T/C",[19],111%
same,"viability, T/C",[20],107%
same,"viability, T/C",[21],97.6%
same,"viability, T/C",[22],100%
same,"viability, T/C",[23],110%
same,"viability, T/C",[24],97.2%
same,"viability, T/C",[25],103%
same,"viability, T/C",[26],88.8%
same,"viability, T/C",[27],96.4%
same,"viability, T/C",[28],101%
same,"viability, T/C",[29],108%
same,"viability, T/C",[30],98.5%
same,"viability, T/C",[31],81.2%
same,"viability, T/C",[32],101%
same,"viability, T/C",[33],98.9%
same,"viability, T/C",[34],92.6%
same,"viability, T/C",[35],112%
same,"viability, T/C",[36],95.3%
CC(C)n1c(=O)n(C)c2cnc3cc(F)c(-c4ccc(OCCCN5CCCCC5)nc4)cc3c21 + Nc1ccc(C#CCN(C(=O)Cc2ncc(C(F)(F)F)cc2C(F)(F)F)c2ccc(F)cc2)nn1,IC50,second compound 0.0316 µM,> 10 µM
same,IC50,second compound 0.1 µM,> 10 µM
same,IC50,second compound 0.316 µM,> 10 µM
same,IC50,second compound 1 µM,> 10 µM
same,IC50,second compound 3.16 µM,> 10 µM
same,IC50,second compound 10 µM,> 10 µM
same,"viability, T/C",[1],88.3%
same,"viability, T/C",[2],89%
same,"viability, T/C",[3],103%
same,"viability, T/C",[4],106%
same,"viability, T/C",[5],93.7%
same,"viability, T/C",[6],98.8%
same,"viability, T/C",[7],99.5%
same,"viability, T/C",[8],109%
same,"viability, T/C",[9],111%
same,"viability, T/C",[10],116%
same,"viability, T/C",[11],118%
same,"viability, T/C",[12],100%
same,"viability, T/C",[13],108%
same,"viability, T/C",[14],106%
same,"viability, T/C",[15],103%
same,"viability, T/C",[16],98.7%
same,"viability, T/C",[17],105%
same,"viability, T/C",[18],98%
same,"viability, T/C",[19],107%
same,"viability, T/C",[20],95.9%
same,"viability, T/C",[21],107%
same,"viability, T/C",[22],114%
same,"viability, T/C",[23],95.2%
same,"viability, T/C",[24],84.7%
same,"viability, T/C",[25],91.7%
same,"viability, T/C",[26],99.9%
same,"viability, T/C",[27],103%
same,"viability, T/C",[28],115%
same,"viability, T/C",[29],111%
same,"viability, T/C",[30],91.5%
same,"viability, T/C",[31],86.4%
same,"viability, T/C",[32],102%
same,"viability, T/C",[33],114%
same,"viability, T/C",[34],89.3%
same,"viability, T/C",[35],98.1%
same,"viability, T/C",[36],92.6%
